How the values were obtained:
Plasmodium falciparum [1] = test: NOVARTIS: Inhibition of Plasmodium falciparum 3D7 (drug-susceptible) proliferation in erythrocyte-based infection assay; assay type: functional, organism-based; settings: Plasmodium falciparum, 3D7
Plasmodium falciparum [2] = test: NOVARTIS: Inhibition of Plasmodium falciparum W2 (drug-resistant) proliferation in erythrocyte-based infection assay; assay type: functional, organism-based; settings: Plasmodium falciparum, W2; read-out: EC50
[3] = NOVARTIS: Cytotoxicity against human hepatocellular carcinoma cell line (Huh7); assay type: toxicity, cell-based, Huh-7; settings: Huh7 cells (hepatocellular carcinoma cell line)

Row | Structure (SMILES) | EC50 (Plasmodium falciparum [1]) [µM] | EC50 (Plasmodium falciparum [2]) [µM] | CC50 [3] [µM]
1 | COC(=O)c1c(-c2c(F)cccc2Cl)noc1C=CNc1ccccc1 | 11.4 | 6.98 | 73.7
2 | CCc1ccccc1N(CC(=O)NC1CCCCC1)C(=O)CCC(=O)Nc1ccccn1 | 0.835 | 1.27 | > 100
3 | COc1cc2nc(CN(C)C(C)c3cccs3)nc(N3CCCC3)c2cc1OC (stereo not given) | > 12.5 | 1.99 | 26.4
4 | CN1CCN(N/C=C2/C(=O)N(c3nc4ccccc4s3)N=C2c2ccccc2)CC1 | > 0.549 | > 1.74 | > 10
5 | CCOC(=O)C1(CC2CCCCO2)CCN(C(=O)Nc2cccc(SC)c2)CC1 (stereo not given) | > 12.5 | 4.53 | > 100
6 | O=C(Cc1ccccc1)NCc1nnc(SCC(=O)N2N=C(c3cccs3)CC2c2ccc(F)cc2)n1Cc1ccccc1 (stereo not given) | 8.85 | 0.984 | > 100
7 | COc1cc(NC(C)CCCN(Cc2ccc(Cl)cc2)C(=O)c2ccc(Cl)cc2Cl)c2ncccc2c1 (stereo not given) | 0.376 | 0.473 | 4.87
8 | C=CCSc1nc(Sc2ccc(Cl)cc2)c2sc3ccccc3c2n1 | > 1.25 | > 0.642 | > 10
9 | CN(CCCNc1ccnc2cc(Cl)ccc12)C(=O)CSc1ccccc1 | 0.00717 | 0.0203 | > 10
10 | CCOC(=O)C1=C(C)NC2=C(C(=O)C(C(=O)OCC)C(c3ccccc3OC)C2)C1c1cc(OC)c(OC)c(OC)c1 (stereo not given) | 1.5 | 0.713 | > 100
11 | CCCCN(C(=O)c1ccccc1C)c1nc(-c2cc(OC)ccc2OC)cs1 | 1.72 | 2.86 | > 100
12 | Cc1cccc(NC(=O)C2C3C=CC4(O3)C2C(=O)N(CC2COc3ccccc3O2)C4C(=O)NC2CCCC(C)C2C)c1 (stereo not given) | > 8.07 | 1.86 | > 100
13 | COc1ccc(-n2c(CNc3cc(C(F)(F)F)ccc3Cl)nnc2SCc2ccccc2Cl)cc1 | 0.728 | 0.801 | > 100
14 | O=C1C=C(Nc2ccc(O)cc2)c2ccccc2C1=O | 0.73 | 0.785 | 5.12
15 | COCCOC(=O)C1=C(C)NC2=C(C(=O)CC(c3ccc(OC)c(OC)c3)C2)C1c1ccccc1F (stereo not given) | 0.082 | 0.0118 | > 100
16 | CC(=O)N1c2ccccc2NC2=C(C(=O)CCC2)C1c1ccc([N+](=O)[O-])cc1 (stereo not given) | > 1.25 | 0.0267 | > 10
17 | COC(=O)C1=CNC=C(C(=O)OC)C1c1ccc(Cl)c(Cl)c1 | 0.114 | 0.105 | > 64.9
18 | CCN(CC)c1ccc(NC(=O)c2cccs2)cc1 | 0.414 | 0.77 | > 100
19 | N=c1c2c(n(Cc3ccc([N+](=O)[O-])cc3)c3c1CCC3)CCCC2 | 0.121 | 0.13 | > 100
20 | FC(F)(F)c1ccc(Nc2nnnc3ccccc23)cc1 | 7.72 | 7.23 | > 100
21 | Cc1ccn2c(NC(C)(C)CC(C)(C)C)c(-c3ccccc3OC(=O)/C=C/c3ccc([N+](=O)[O-])cc3)nc2c1 | > 1.39 | 0.0637 | > 10
22 | O=C(COC(c1ccccc1)c1cccnc1)NCCNC(=O)OCc1ccccc1 (stereo not given) | 0.967 | 0.941 | > 10

Row | Structure (SMILES) | EC50 (Plasmodium falciparum [1]) [µM] | EC50 (Plasmodium falciparum [2]) [µM] | CC50 [3] [µM]
23 | COc1ccc(C2CC(=O)C3=C(C2)NC(C)=C(C(=O)OC(C)C)C3c2ccc(F)cc2)cc1 (stereo not given) | 0.0834 | 0.0232 | > 100
24 | CCCCCN(C(=O)Nc1ccccc1OC)C(CC)c1nc2ccccc2c(=O)n1-c1ccccc1OC (stereo not given) | 0.78 | 0.835 | > 10
25 | C/C(=C\c1csc(C)n1)[C@@H]1C[C@@H]2O[C@@H]2CCC[C@H](C)C(O)[C@@H](C)C(=O)C(C)(C)[C@@H](O)CC(=O)O1 (stereo not given in full) | 1.03 | 0.155 | > 10
26 | CCCN(CC1CC1)C(=O)C1CCCN(c2cccc3c2C(=O)N(Cc2cc(OC)c(OC)c(OC)c2)C3=O)C1 (stereo not given) | > 1.25 | 1.12 | > 10
27 | Cc1ccc(N2C(=O)C3C(C2=O)C2(c4ccccc4)C(=O)C3(c3ccccc3)C(c3ccccc3)=C2c2ccccc2)c([N+](=O)[O-])c1 (stereo not given) | 2.64 | > 12.5 | > 100
28 | CCCCCCN(C(=O)c1cccc(F)c1)C(CC)c1nc2ccccc2c(=O)n1-c1ccccc1OC (stereo not given) | 1.07 | 0.509 | > 7.32
29 | COc1ccc(-c2noc(N3CCc4ccccc4C3)n2)cc1 | 0.2 | 0.125 | > 10
30 | CC1(C)C(=O)C2(CCCCC2)C(=O)OC1C=Cc1ccccc1 (stereo not given) | > 12.5 | 1.54 | > 100
31 | COc1ccc2cc3[n+](cc2c1OC)CCc1cc2c(cc1-3)OCO2 [BERBERINE CHLORIDE] | 0.218 | 0.442 | > 100
32 | c1cncc(CCNc2nccn3c(-c4cccc5ccccc45)cnc23)c1 | 1.24 | > 1.25 | > 10
33 | Clc1cc(C=NNC2=NCCCN2)cc(Cl)n1 | 0.247 | > 0.718 | > 10
34 | Cc1ccn2c(NC(C)(C)CC(C)(C)C)c(-c3ccccc3OC(=O)CC(C)C)nc2c1 | 0.772 | < 0.0115 | > 10
35 | O=C(Nc1ccc2oc(-c3ccccc3F)nc2c1)c1ccc([N+](=O)[O-])o1 | > 12.5 | 1.26 | > 100
36 | CCN(CC)CCCC(C)Nc1ccnc2ccc(-c3ccccc3)cc12 (stereo not given) | 0.264 | 0.359 | > 10
37 | O=C1CN(C(=O)COC(=O)c2ccccc2NCCc2ccc(F)cc2)c2ccccc2N1 | 0.219 | 0.165 | > 10
38 | O=C(c1ccc(F)cc1Cl)N1CCN(c2nc(-c3cccs3)ns2)CC1 | 0.351 | 0.0789 | > 10
39 | CC(=O)Nc1c(NCc2ccccc2)c2ccccc2sc1=O | 0.505 | 0.154 | > 100
40 | O=C(NCc1c(Cl)cccc1Sc1ccc(Cl)cc1)c1ccc2c(c1)CCO2 | 0.0691 | 0.0562 | > 10
41 | CN(Cc1ccccc1)c1cc(-c2ccccn2)nc(-c2ccccn2)n1 | 0.531 | 0.514 | > 10
42 | CC(C)N(CC(=O)Nc1cc(C(C)(C)C)nn1-c1ccc(Cl)c(Cl)c1)C(=O)c1ccc2ccccc2c1 | 1.31 | 3 | > 100
43 | COC(=O)c1c(-c2c(Cl)cccc2Cl)noc1C=CNc1ccccc1 | > 12.5 | 8.79 | 76.8
44 | CCCCCSc1scc(-c2ccc(O)c(O)c2)[n+]1C | 0.254 | 0.313 | > 100

Row | Structure (SMILES) | EC50 (Plasmodium falciparum [1]) [µM] | EC50 (Plasmodium falciparum [2]) [µM] | CC50 [3] [µM]
45 | Cc1ccc(C)n1-c1ccc(N(C)C)cc1 | 2.93 | 1.33 | 50.9
46 | O=C(Nc1ccccc1Cl)C1CCCN1C(=O)OCc1ccccc1 (stereo not given) | > 1.25 | > 0.929 | > 10
47 | Nc1ccc2[nH]c(/C=C/c3ccc(Cl)cc3)nc2c1 | > 1.25 | 2.08 | > 10
48 | c1ccc(Oc2ccc(Nc3nc4nonc4nc3Nc3ccc(Oc4ccccc4)cc3)cc2)cc1 | 1.76 | > 1.25 | > 10
49 | Cc1ccc(OCC(=O)Nc2cccc(C(=O)O)c2)c(Br)c1 | > 1.25 | > 0.0349 | > 10
50 | CC(C)(C)c1csc(NC(=O)c2ccc(S(=O)(=O)N3CCCCC3)cc2)n1 | > 12.5 | 0.175 | 49.1
51 | O=c1cc(NC2CCN(CCCc3ccccc3)CC2)c2cc(Cl)ccc2o1 | 0.408 | 0.863 | 20.5
52 | Cn1nc(C(F)(F)F)c(-c2ccc(Br)cc2)c1NC(=O)Nc1ccc(F)cc1F | 0.211 | 0.206 | 42.8
53 | COc1cc(C(=O)NC2CC2)ccc1OC1CCN(CC(c2ccccc2)c2ccccc2)CC1 | 0.0444 | 0.0185 | 23.5
54 | c1csc(CN2CCc3nc(N4CCCCC4)sc3C2)c1 | 1.26 | 0.446 | > 10
55 | COc1c(C=NNc2nc(Nc3ccc([N+](=O)[O-])cc3)nc(N3CCN(C)CC3)n2)cccc1[N+](=O)[O-] | 0.34 | 0.493 | 56.9
56 | CCOC(=O)N1CCC(NC(=O)c2c(C)nn(-c3cccc(C)c3)c2-n2cccc2)CC1 | 0.28 | 1.06 | > 100
57 | O=C(/C=C/c1ccccn1)NCC1Cc2cc(-c3cnccn3)ccc2O1 (stereo not given) | > 1.25 | > 0.356 | > 10
58 | COc1ccc(-c2cc(C(F)(F)F)n3ncc(C(=O)Nc4cccc(Cl)c4Cl)c3n2)cc1OC | 2.61 | 0.275 | > 100
59 | CC(C)(C)CC(C)(C)Nc1c(-c2ccccc2OC(=O)c2ccco2)nc2ccccn12 | > 12.5 | 4.96 | > 100
60 | Cc1ccc2nc(-c3ccc(O)cc3)oc2c1 | > 1.25 | > 0.635 | > 10
61 | O=C(c1ccc([N+](=O)[O-])o1)N1CCN(c2cccc(Cl)c2)CC1 | 6.33 | 1.04 | > 100
62 | CO[C@H]1[C@H](C)[C@@H]([C@H]2CC[C@H]([C@@H]3CC[C@H]([C@@]4(C)O[C@]5(O[C@H](C[C@@H]6O[C@](O)([C@@H](C)C(=O)O)[C@@H](C)[C@H](O[C@H]7CC[C@H](OC)[C@@H](C)O7)[C@@]6(C)OC)C[C@@H](OC)[C@H]5C)[C@H](C)[C@H]4OC)O3)O2)O[C@](C)(O)[C@@H]1C | 0.0133 | 0.00193 | 2.42
63 | O=C(NC1CCN(Cc2ccccc2)CC1)c1cc([N+](=O)[O-])cc([N+](=O)[O-])c1 | 0.476 | 1.22 | > 10
64 | CCOc1ccc2[nH]c3c(NCCCN4CCOCC4)ncnc3c2c1 | 0.749 | 0.267 | 36.4
65 | CCCc1nc2ccc(NC(=O)c3ccccc3F)cc2c(=O)n1Cc1ccc(-c2ccccc2)cc1 | 1.08 | 0.217 | > 100
